How the values were obtained:
Assay in all cases: relative viability (nuclei count vs DMSO), 5 days (fraction); higher = more cells survive
[1] = compound: NC(=O)[C@@H](CCC(F)(F)F)N(Cc1ccc(-c2ncon2)cc1F)S(=O)(=O)c1ccc(Cl)cc1 [Avagacestat] + CC(=O)c1c(C)c2cnc(Nc3ccc(N4CCNCC4)cn3)nc2n(C2CCCC2)c1=O [Palbociclib] (partner 0.5 µM)
How it was run: (§1)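 Lung cancer cell lines were pin-tool dosed in 1536-well plates on the day after seeding, with either a lone drug or a fixed anchor-drug dose plus five library-drug doses (not always all listed) in √10 steps. Nuclei were counted on 4× images after 5 days. Relative viability is the ratio of treated-well to vehicle-well nuclei counts, with each value a median of duplicate plates.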

Avagacestat + Dasatinib = compound: NC(=O)[C@@H](CCC(F)(F)F)N(Cc1ccc(-c2ncon2)cc1F)S(=O)(=O)c1ccc(Cl)cc1 [Avagacestat] + Cc1nc(Nc2ncc(C(=O)Nc3c(C)cccc3Cl)s2)cc(N2CCN(CCO)CC2)n1 [Dasatinib] (partner 0.075 µM)
How it was run: as §1

Avagacestat + Luminespib = compound: NC(=O)[C@@H](CCC(F)(F)F)N(Cc1ccc(-c2ncon2)cc1F)S(=O)(=O)c1ccc(Cl)cc1 [Avagacestat] + CCNC(=O)c1noc(-c2cc(C(C)C)c(O)cc2O)c1-c1ccc(CN2CCOCC2)cc1 [Luminespib] (partner 0.01 µM)
How it was run: as §1

Avagacestat + Bortezomib = compound: NC(=O)[C@@H](CCC(F)(F)F)N(Cc1ccc(-c2ncon2)cc1F)S(=O)(=O)c1ccc(Cl)cc1 [Avagacestat] + CC(C)C[C@H](NC(=O)[C@H](Cc1ccccc1)NC(=O)c1cnccn1)B(O)O [Bortezomib] (partner 0.002 µM)
How it was run: as §1

| Cell Line | relative viability ([1]; first compound 0.08 µM) | relative viability ([1]; first compound 0.253 µM) | relative viability ([1]; first compound 0.8 µM) | relative viability ([1]; first compound 2.53 µM) | relative viability ([1]; first compound 8 µM) | relative viability (Avagacestat + Dasatinib; first compound 0.08 µM) | relative viability (Avagacestat + Dasatinib; first compound 0.253 µM) | relative viability (Avagacestat + Dasatinib; first compound 0.8 µM) | relative viability (Avagacestat + Dasatinib; first compound 2.53 µM) | relative viability (Avagacestat + Dasatinib; first compound 8 µM) | relative viability (Avagacestat + Luminespib; first compound 0.08 µM) | relative viability (Avagacestat + Luminespib; first compound 0.253 µM) | relative viability (Avagacestat + Luminespib; first compound 0.8 µM) | relative viability (Avagacestat + Luminespib; first compound 2.53 µM) | relative viability (Avagacestat + Luminespib; first compound 8 µM) | relative viability (Avagacestat + Bortezomib; first compound 0.08 µM) | relative viability (Avagacestat + Bortezomib; first compound 0.253 µM) | relative viability (Avagacestat + Bortezomib; first compound 0.8 µM) | relative viability (Avagacestat + Bortezomib; first compound 2.53 µM) | relative viability (Avagacestat + Bortezomib; first compound 8 µM) |
| --- | --- | --- | --- | --- | --- | --- | --- | --- | --- | --- | --- | --- | --- | --- | --- | --- | --- | --- | --- | --- |
| COR-L 105 | 0.435 | 0.353 | 0.429 | 0.391 | 0.4 | 0.281 | 0.307 | 0.345 | 0.247 | 0.279 | 1.02 | 1.01 | 0.798 | 0.542 | 0.754 | 0.894 | 0.681 | 0.689 | 0.697 | 0.687 |
| LK-2 | 0.949 | 0.818 | 0.64 | 0.542 | 0.824 | 0.26 | 0.224 | 0.247 | 0.271 | 0.267 | 0.185 | 0.176 | 0.198 | 0.154 | 0.169 |  |  |  |  |  |
| PC-14 | 0.645 | 0.618 | 0.687 | 0.461 | 0.524 | 0.214 | 0.182 | 0.169 | 0.13 | 0.207 | 0.151 | 0.162 | 0.162 |  | 0.176 | 1.12 | 1.12 | 0.848 | 0.785 | 0.77 |
| SW 1573 | 0.512 | 0.422 | 0.475 | 0.337 | 0.357 | 0.515 | 0.593 | 0.523 | 0.565 | 0.279 | 0.341 | 0.257 | 0.218 | 0.196 | 0.214 | 1.26 | 1.03 | 1.19 | 0.967 | 0.922 |
| NCI-H2085 | 0.464 | 0.469 | 0.478 | 0.468 | 0.511 | 0.201 | 0.202 | 0.229 | 0.222 | 0.252 | 0.438 | 0.481 | 0.729 | 0.414 | 0.472 | 1.13 | 1.21 | 1.14 | 1.13 | 0.992 |
| NCI-H441 | 0.242 | 0.214 | 0.249 | 0.229 | 0.218 | 0.518 | 0.471 | 0.541 | 0.532 | 0.454 | 0.441 | 0.403 | 0.327 | 0.361 | 0.301 | 0.66 | 0.925 | 0.531 | 0.485 | 0.248 |
| NCI-H1648 | 0.237 | 0.271 | 0.289 | 0.256 | 0.284 |  |  |  |  |  |  |  |  |  |  |  |  |  |  |  |
| NCI-H2126 | 0.395 | 0.355 | 0.385 | 0.358 | 0.373 | 0.588 | 0.587 | 0.606 | 0.467 | 0.582 | 0.893 | 0.939 | 0.978 | 0.852 | 0.891 | 1.15 | 1.1 | 1.1 | 1.18 | 1.02 |
| LXF-289 | 0.624 | 0.613 | 0.612 | 0.578 | 0.582 | 0.196 | 0.183 | 0.168 | 0.191 | 0.152 | 0.794 | 0.675 | 0.912 | 0.686 | 0.603 | 1.04 | 1.1 | 0.972 | 0.99 | 0.911 |
| HCC-44 | 0.976 | 0.997 | 0.983 | 1.04 | 1.01 |  |  |  |  |  | 1.21 | 1.36 | 1.14 | 0.885 | 1.25 | 1.06 | 1.09 | 0.934 | 0.965 | 0.829 |
| EKVX | 0.392 | 0.374 | 0.405 | 0.365 | 0.293 | 0.621 | 0.491 | 0.512 | 0.473 | 0.382 | 0.798 | 0.973 | 0.859 | 0.809 | 0.751 | 1.18 | 1.44 | 1.23 | 0.885 | 0.9 |
| NCI-H522 | 1.13 | 1.2 | 1.08 | 0.954 | 0.946 | 0.942 | 0.886 | 0.861 | 0.927 | 1.07 | 1.08 | 1.12 | 1.03 | 1.21 | 1.15 |  |  |  |  |  |
| NCI-H1792 | 0.817 |  | 0.751 |  | 0.612 | 1.33 |  | 0.666 |  | 0.706 | 0.649 | 0.478 | 0.522 | 0.414 | 0.33 | 1.6 | 1.06 | 1.37 | 0.832 | 0.766 |
| NCI-H661 | 0.415 | 0.343 | 0.428 | 0.386 | 0.419 | 1.05 | 0.962 | 1.07 | 0.891 | 0.852 | 0.983 | 1.08 | 0.946 | 0.913 | 1.01 | 0.919 | 1.06 | 0.774 |  | 0.693 |
| LCLC-103H | 0.54 | 0.444 | 0.473 | 0.501 | 0.446 | 0.456 | 0.46 | 0.508 | 0.368 | 0.678 | 1.1 | 1.27 | 0.979 | 0.808 | 0.851 | 1.01 | 1.07 | 1.03 | 1.07 | 1.04 |
| NCI-H1793 | 0.348 | 0.324 | 0.331 | 0.263 | 0.316 | 0.445 | 0.383 | 0.319 | 0.282 | 0.337 | 0.145 | 0.176 | 0.157 | 0.198 | 0.172 |  |  |  |  |  |
| HOP-62 | 0.461 | 0.482 | 0.412 | 0.458 | 0.366 | 0.701 | 0.63 | 0.626 | 0.502 | 0.484 | 0.988 | 1.09 | 1.01 | 0.889 | 0.83 | 0.783 | 0.819 | 0.727 | 0.513 | 0.709 |
| HCC-827 | 0.468 | 0.478 | 0.503 | 0.442 | 0.465 | 0.313 | 0.277 | 0.226 | 0.184 | 0.244 | 0.711 | 0.927 | 0.586 | 0.324 | 0.578 | 1.09 | 1.13 | 1.13 | 1.05 | 1.12 |

From the supplement of paper PMC10307832
